Source: US20230131535A1, “ARYLMETHYLENE AROMATIC COMPOUNDS AS Kv1.3 POTASSIUM SHAKER CHANNEL BLOCKERS” (D. E. Shaw Research, LLC, priority 2019, published 2023)
pIC50: −log10 of the molar value. Like-named read-outs stand apart in the source and are kept apart here.

Columns and labels:
hERG channel = target: T1, hERG channel (Homo sapiens, UniProt Q12809); assay: hERG electrophysiology, automated whole-cell patch clamp (Patchliner); format: cell-based; conditions: Table 6; CHO-K1 cells stably expressing hERG; whole cell current, tail current protocol; read-out: hERG_IC50
T1 construct: expressed in transfected cells
Method: Example 68. Evaluation of hERG Activities
This assay is used to evaluate the disclosed compounds' inhibition activities against the hERG channel.
CHO-K1 cells stably expressing hERG were grown in Ham's F-12 Medium with Glutamine containing 10% heat-inactivated FBS, 1% Penicillin/Streptomycin, Hygromycin (100 μg/ml) and G418 (100 μg/ml). Cells were grown in culture flasks at 37° C. in a 5% CO2-humidified incubator.
(§1) The cells were bathed in an extracellular solution containing 140 mM NaCl, 4 mM KCl, 2 mM CaCl2), 1 mM MgCl2, 5 mM Glucose, 10 mM HEPES; pH adjusted to 7.4 with NaOH; 295-305 mOsm. The internal solution contained 50 mM KCl, 10 mM NaCl, 60 mM KF, 20 mM EGTA, 10 mM HEPES; pH adjusted to 7.2 with KOH; 285 mOsm. All compounds were dissolved in DMSO at 30 mM. Compound stock solutions were freshly diluted with external solution to concentrations of 30 nM, 100 nM, 300 nM, 1 μM, 3 μM, 10 μM, 30 μM and 100 μM. The highest content of DMSO (0.3%) was present in 100 μM.
The voltage protocol (see Table 5) was designed to simulate voltage changes during a cardiac action potential with a 300 ms depolarization to +20 mV (analogous to the plateau phase of the cardiac action potential), a repolarization for 300 ms to −50 mV (inducing a tail current) and a final step to the holding potential of −80 mV. The pulse frequency was 0.3 Hz. Control (compound-free) and compound pulse trains for each compound concentration applied contained 70 pulses.
Whole cell current recordings and compound application were enabled by means of an automated patch clamp platform Patchliner (Nanion). EPC 10 patch clamp amplifier (HEKA) along with Patchmaster software (HEKA Elektronik Dr. Schulze GmbH) was used for data acquisition. Data were sampled at 10 kHz without filtering. Increasing compound concentrations were applied consecutively to the same cell without washouts in between.
(§2) AUC and PEAK values were obtained with Patchmaster (HEKA Elektronik Dr. Schulze GmbH). To determine IC50 the last single pulse in the pulse train corresponding to a given compound concentration was used. Obtained AUC and PEAK values in the presence of compound were normalized to control values in the absence of compound. Using Origin (OridinLab), IC50 was derived from data fit to Hill equation: Icompound/Icontrol=(100−A)/(1+([compound]/IC50)nH)+A, where IC50 is the concentration at which current inhibition is half-maximal, [compound] is the applied compound concentration, A is the fraction of current that is not blocked and nH is the Hill coefficient.

Kv1.3 potassium channel = target: T2, Kv1.3 potassium channel (Homo sapiens, UniProt P22001); assay: Kv1.3 potassium channel blocker activity, automated whole-cell patch clamp (Patchliner); format: cell-based; conditions: CHO-K1 cells stably expressing Kv1.3, whole cell current, pulses -90 mV to +40 mV, read-out: Kv1.3_IC50
T2 construct: expressed in transfected cells
Method: Example 67. Evaluation of Kv1.3 Potassium Channel Blocker Activities
The assay described below is used to evaluate the disclosed compound's activities as Kv1.3 potassium channel blockers.
CHO-K1 cells stably expressing Kv1.3 were grown in DMEM containing 10% heat-inactivated FBS, 1 mM Sodium Pyruvate, 2 mM L-Glutamine and G418 (500 μg/ml). Cells were grown in culture flasks at 37° C. in a 5% CO2-humidified incubator.
as §1
The currents were evoked by applying 100 ms depolarizing pulses from −90 mV (holding potential) to +40 mV were applied with 0.1 Hz frequency. Control (compound-free) and compound pulse trains for each compound concentration applied contained 20 pulses. 10 second breaks were used between pulse trains (see Table 4 below).
Whole cell current recordings and compound application were enabled by means of an automated patch clamp platform Patchliner (Nanion Technologies GmbH). EPC 10 patch clamp amplifier (HIEKA Elektronik Dr. Schulze GmbH) along with Patchmaster software (HIEKA Elektronik Dr. Schulze GmbH) was used for data acquisition. Data were sampled at 10 kHz without filtering. Passive leak currents were subtracted online using a P/4 procedure (HEKA Elektronik Dr. Schulze GmbH). Increasing compound concentrations were applied consecutively to the same cell without washouts in between. Total compound incubation time before the next pulse train was not longer than 10 seconds. Peak current inhibition was observed during compound equilibration.
as §2, with “AUC and peak values were” for “AUC and PEAK values were”, “To determine IC50, the last” for “To determine IC50 the last”, “AUC and peak values in” for “AUC and PEAK values in”, “where IC50 value is the” for “where IC50 is the”

T2 sequence (P22001 whole entry): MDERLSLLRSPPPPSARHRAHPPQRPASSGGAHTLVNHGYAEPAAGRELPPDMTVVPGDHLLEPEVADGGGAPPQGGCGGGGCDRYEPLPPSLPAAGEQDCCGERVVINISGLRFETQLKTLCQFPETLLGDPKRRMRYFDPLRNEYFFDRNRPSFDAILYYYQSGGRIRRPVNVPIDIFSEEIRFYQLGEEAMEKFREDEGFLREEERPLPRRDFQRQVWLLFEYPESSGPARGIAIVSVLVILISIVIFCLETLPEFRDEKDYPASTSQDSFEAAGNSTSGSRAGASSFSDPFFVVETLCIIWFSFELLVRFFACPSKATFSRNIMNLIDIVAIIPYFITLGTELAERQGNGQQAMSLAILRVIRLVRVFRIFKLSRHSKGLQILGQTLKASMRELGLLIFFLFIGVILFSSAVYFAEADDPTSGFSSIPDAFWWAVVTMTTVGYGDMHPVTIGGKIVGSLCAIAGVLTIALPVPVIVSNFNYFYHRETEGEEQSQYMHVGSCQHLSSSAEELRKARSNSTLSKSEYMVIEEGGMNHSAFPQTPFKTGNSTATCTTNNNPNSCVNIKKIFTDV
T1 sequence (Q12809 whole entry): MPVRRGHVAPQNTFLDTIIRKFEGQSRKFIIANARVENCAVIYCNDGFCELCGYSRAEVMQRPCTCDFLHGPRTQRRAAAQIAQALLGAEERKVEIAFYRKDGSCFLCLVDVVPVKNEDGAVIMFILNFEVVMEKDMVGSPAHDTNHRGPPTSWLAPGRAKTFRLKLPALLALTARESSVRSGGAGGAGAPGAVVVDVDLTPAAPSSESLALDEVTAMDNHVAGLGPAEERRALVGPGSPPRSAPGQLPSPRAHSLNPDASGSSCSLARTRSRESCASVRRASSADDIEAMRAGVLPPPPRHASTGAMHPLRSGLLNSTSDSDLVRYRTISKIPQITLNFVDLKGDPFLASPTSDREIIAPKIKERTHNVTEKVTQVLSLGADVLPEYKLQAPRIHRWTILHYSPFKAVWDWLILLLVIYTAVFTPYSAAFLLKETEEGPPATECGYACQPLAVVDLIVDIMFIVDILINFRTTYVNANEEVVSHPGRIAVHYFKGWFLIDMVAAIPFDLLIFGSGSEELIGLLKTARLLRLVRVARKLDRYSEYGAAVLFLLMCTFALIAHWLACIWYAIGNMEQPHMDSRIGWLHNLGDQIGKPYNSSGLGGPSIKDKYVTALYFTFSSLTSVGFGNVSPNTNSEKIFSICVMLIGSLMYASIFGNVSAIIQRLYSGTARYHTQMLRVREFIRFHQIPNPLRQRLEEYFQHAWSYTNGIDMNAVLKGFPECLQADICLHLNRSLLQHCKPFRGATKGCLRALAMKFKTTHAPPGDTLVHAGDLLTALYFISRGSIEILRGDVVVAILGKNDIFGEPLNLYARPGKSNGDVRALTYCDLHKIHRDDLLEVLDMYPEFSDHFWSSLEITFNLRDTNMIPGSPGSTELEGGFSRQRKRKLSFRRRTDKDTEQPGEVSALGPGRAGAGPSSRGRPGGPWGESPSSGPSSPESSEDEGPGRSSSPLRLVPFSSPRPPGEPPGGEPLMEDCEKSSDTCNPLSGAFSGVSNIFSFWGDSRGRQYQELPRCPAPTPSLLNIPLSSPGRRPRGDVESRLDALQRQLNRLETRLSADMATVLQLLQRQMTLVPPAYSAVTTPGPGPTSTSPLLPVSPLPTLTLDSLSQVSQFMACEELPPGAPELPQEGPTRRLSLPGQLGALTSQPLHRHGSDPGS

Row | Structure (SMILES) | pIC50 (Kv1.3 potassium channel; Table 6) | pIC50 (Kv1.3 potassium channel; Table 7) | pIC50 (hERG channel)
1 | Oc1ccc(Cl)c(Cl)c1C(O)c1ccncc1 (single isomer, unassigned) [Compound 34, 3,4-dichloro-2-(hydroxy(pyridin-4-yl)methyl)phenol] | > 4.52 |  | < 4.52
2 | Oc1ccc(Cl)c(Cl)c1C(O)c1ccncc1 (single isomer, unassigned) [Compound 37, 3,4-dichloro-2-(hydroxy(pyridin-4-yl)methyl)phenol] | > 6.00 |  | < 4.52
3 | CC(=O)NC(c1ccncc1)c1c(O)ccc(Cl)c1Cl (single isomer, unassigned) [Compound 38, N-((2,3-dichloro-6-hydroxyphenyl)(pyridin-4-yl)methyl)acetamide] | > 4.52 |  | < 4.52
4 | Cc1cnccc1C(O)c1c(O)ccc(Cl)c1Cl (single isomer, unassigned) [Compound 46, 3,4-dichloro-2-[hydroxy(3-methylpyridin-4-yl)methyl]phenol] | > 6.00 |  | < 4.52
5 | O=C(NC(c1ccncc1)c1c(O)ccc(Cl)c1Cl)C1CNC1 (single isomer, unassigned) [Compound 50, N-[(2,3-dichloro-6-hydroxyphenyl)(pyridin-4-yl)methyl]azetidine-3-carboxamide] | > 6.00 |  | < 4.52
6 | O=C(N[C@H](c1ccncc1)c1c(O)ccc(Cl)c1Cl)[C@@H]1CCCN1 (single isomer, unassigned) [Compound 68] | > 6.00 |  | > 4.52
7 | COc1ccc(Cl)c(Cl)c1C(N)c1ccncc1 (centres unmarked) [Compound 70, 1-(2,3-dichloro-6-methoxyphenyl)-1-(pyridin-4-yl)methanamine] | > 4.52 |  | 
8 | CN(C(=O)C1CNC1)C(c1ccncc1)c1c(O)ccc(Cl)c1Cl (centres unmarked) [Compound 71, N-[(2,3-dichloro-6-hydroxyphenyl)(pyridin-4-yl)methyl]-N-methylazetidine-3-carboxamide] | > 4.52 |  | 
9 | Cn1cc(C(c2ccncc2)c2c(O)ccc(Cl)c2Cl)cn1 (centres unmarked) [Compound 74, 3,4-dichloro-2-[(1-methyl-1H-pyrazol-4-yl)(pyridin-4-yl)methyl]phenol] | > 4.52 |  | 
10 | C[C@@H](NC(=O)[C@@H]1CCCNC1)c1c(O)ccc(Cl)c1Cl [Compound 79, (3R)-N-[(1R)-1-(2,3-dichloro-6-hydroxyphenyl)ethyl]piperidine-3-carboxamide] |  | > 5.00 | 
11 | C[C@H](NC(=O)[C@@H]1CCCNC1)c1c(O)ccc(Cl)c1Cl [Compound 81, (3R)-N-[(1S)-1-(2,3-dichloro-6-hydroxyphenyl)ethyl]piperidine-3-carboxamide] |  | > 6.00 | 
12 | Cc1cc(O)c([C@H](C)NC(=O)C2CNC2)cc1Cl [Compound 82, N-[(1S)-1-(5-chloro-2-hydroxy-4-methylphenyl)ethyl]azetidine-3-carboxamide] |  | > 5.00 | 
13 | C[C@H](NC(=O)[C@@H](O)CO)c1c(O)ccc(Cl)c1Cl [Compound 85, (2S)-N-[(1S)-1-(2,3-dichloro-6-hydroxyphenyl)ethyl]-2,3-dihydroxypropan-amide] |  | > 5.00 | 
14 | C[C@H](NC(=O)C1CCNCC1)c1c(O)ccc(Cl)c1Cl [Compound 90, N-[(1S)-1-(2,3-dichloro-6-hydroxyphenyl)ethyl]piperidine-4-carboxamide] |  | > 6.00 | 
15 | C[C@H](NC(=O)[C@H]1CCNC1)c1c(O)ccc(Cl)c1Cl [Compound 93, (3S)-N-[(1S)-1-(2,3-dichloro-6-hydroxyphenyl)ethyl]pyrrolidine-3-carboxamide] |  | > 6.00 | 
16 | Cc1cc(O)c([C@@H](N)CNC(=O)C2CNC2)cc1Cl [Compound 95, N-[(2R)-2-amino-2-(5-chloro-2-hydroxy-4-methylphenyl)ethyl] azetidine-3-carboxamide] |  | > 5.00 | 
17 | Cc1cc(O)c(C(N)CNC(=O)CO)cc1Cl (centres unmarked) [Compound 96, N-[2-amino-2-(5-chloro-2-hydroxy-4-methylphenyl)ethyl]-hydroxyacetamide] |  | > 5.00 | 

More lines, main results first:

Row | pIC50 (Kv1.3 potassium channel; Table 6) | pIC50 (Kv1.3 potassium channel; Table 7) | Structure (SMILES) | pIC50 (hERG channel)
18 | > 6.00 |  | CC(=O)NC(c1ccncc1)c1c(O)ccc(Cl)c1Cl (single isomer, unassigned) [Compound 41, N-((2,3-dichloro-6-hydroxyphenyl)(pyridin-4-yl)methyl)acetamide] | < 4.52
19 | > 6.00 |  | Nc1cc(C(O)c2c(O)ccc(Cl)c2Cl)ccn1 (single isomer, unassigned) [Compound 45, 2-[(2-aminopyridin-4-yl)(hydroxy)methyl]-3,4-dichlorophenol] | < 4.52
20 | > 6.00 |  | NCc1cc(C(O)c2c(O)ccc(Cl)c2Cl)ccn1 (single isomer, unassigned) [Compound 53, 2-((2-(aminomethyl)pyridin-4-yl)(hydroxy)methyl)-3,4-dichlorophenol] | < 4.52
21 |  | > 6.00 | C[C@@H](NC(=O)C1CNC1)c1c(O)ccc(Cl)c1Cl [Compound 77, N-[(1R)-1-(2,3-dichloro-6-hydroxyphenyl)ethyl]azetidine-3-carboxamide] | 
22 |  | > 5.00 | C[C@H](NC(=O)[C@H]1CCCNC1)c1c(O)ccc(Cl)c1Cl [Compound 80, (3S)-N-[(1S)-1-(2,3-dichloro-6-hydroxyphenyl)ethyl]piperidine-3-carboxamide] | 
23 |  | > 5.00 | C[C@H](NC(=O)CO)c1c(O)ccc(Cl)c1Cl [Compound 83, N-[(1S)-1-(2,3-dichloro-6-hydroxyphenyl)ethyl]-2-hydroxyacetamide] | 
24 |  | > 5.00 | C[C@H](NC(=O)[C@H](O)CO)c1c(O)ccc(Cl)c1Cl [Compound 84, (2R)-N-[(1S)-1-(2,3-dichloro-6-hydroxyphenyl)ethyl]-2,3-dihydroxypropan-amide] | 
25 |  | > 5.00 | C[C@H](NC(=O)C1CNC1)c1cc(Cl)c(Cl)cc1O [Compound 86, N-[(1S)-1-(4,5-dichloro-2-hydroxyphenyl)ethyl]azetidine-3-carboxamide] | 
26 |  | > 5.00 | C[C@H](NC(=O)C1(O)CNC1)c1c(O)ccc(Cl)c1Cl [Compound 87] | 
27 |  | > 5.00 | C[C@H](NC(=O)C1CN(C(=O)CO)C1)c1c(O)ccc(Cl)c1Cl [Compound 88, N-[(1S)-1-(2,3-dichloro-6-hydroxyphenyl)ethyl]-1-(2-hydroxyacetyl) azetidine-3-carboxamide] | 
28 |  | > 5.00 | CC(NC(=O)C1CNCCO1)c1c(O)ccc(Cl)c1Cl (centres unmarked) [Compound 92, N-[1-(2,3-dichloro-6-hydroxyphenyl)ethyl]morpholine-2-carboxamide] | 
29 |  | > 6.00 | Cc1cc(O)c(C(N)CC(=O)NC2CNC2)cc1Cl (centres unmarked) [Compound 97, 3-amino-N-(azetidin-3-yl)-3-(5-chloro-2-hydroxy-4-methylphenyl)propenamide] | 
